Experiments:
[1] = MTT test of cytotoxicity on HepG2.2.15 cells; type: cell-based; settings: human, read-out: CC50 (μM) (HepG2. 2. 15)
Method: (§1) A tube of frozen HepG2.2.15 cells taken from a liquid nitrogen tank was quickly placed into a water bath at 42° C. and shaken to thaw. DMEM complete medium (fetal bovine serum 10%, G418 380 μg/mL, Penicillin 100 U/ml, Streptomycin 100 U/ml) was used for cell culturing at conditions of 37° C. and 5% CO2. The number of cell passage in normal growing cells was once per 2-3 days.
Cytotoxicity of the compound on HepG2.2.15 cells was tested with the MTT colorimetric assay established by Mosmann. After continuous incubation for 72 h, 10 μL MTT was added to each well. Four hours later, the supernatant was discarded and 200 μL DMSO was added to each well. The OD value in each well was read using a microplate reader (measurement wavelength 490 nm, reference wavelength 630 nm). The result was recorded and the percentage inhibition of HepG2.2.15 cells by each compound was calculated:
The half toxic concentration (TC50) of the medicament on cells was calculated according to the percentage inhibition of the cell by the medicament.

VSVG/HIV-luc (NL4-3) = assay: microbe, parasite or virus in culture; type: cell-based, HIV-1; settings: Human immunodeficiency virus 1, NL43, HEK-293T; for EC50: 48 h, read-out: EC50 (μM) VSVG/HIV-luc (NL4-3); for inhibition at 10 µM: read-out: Inhibitory activity at 10 μM
HBeAg = assay: In vitro inhibition of HBV: HBeAg in HepG2.2.15 cells by ELISA; type: cell-based; settings: Hepatitis B virus, HepG2.2.15, read-out: IC50 (μM) (HBeAg)
Method: as §1
(§2) The effect of a compound on HBV surface antigen s and antigen e in the cell culture was detected using a screening concentration lower than the half toxic concentration of the compound. HepG2.2.15 cells in logarithmic growth phase were selected and digested with trypsin into single cell suspension, and were seeded to a 24-well plate at a concentration of 2×10^4/mL, 1 mL per well. Media of different medicament concentrations were added, three wells for each concentration, and cells added with complete medium were set as normal control. Cell supernatants and cells at day 3, day 6 and day 9 were collected and kept under −20° C. The intracellular and extracellular expressions of e antigen and surface antigen at day 3, day 6 and day 9 were determined by ELISA.
(§3) 2.4 Effect of the Compound on HBeAg and HBsAg in HepG2.2.15 Cell Supernatant Detected by ELISA
(§4) The instructions of the kit were followed;
(§5) Measurement: OD value of each well was read from microplate reader using dual wavelength 450/630 nm.
(§6) Result determination: The Cutoff value was first calculated according to equation: COV=average OD of negative control×2.1. Then, if a sample had OD≧COV, the result was determined as positive, or if a sample had OD≦COV, the result was determined as negative.

[2] = MTS test of effects of the compound on cell survival; type: cell-based; settings: human, 293T cells
Method: Then, 20 μL freshly prepared mixture of MTS/PMS was added to each well and after 4 h incubation in the incubator at 37° C. with 5% CO2, the color was developed. The light absorption (OD) of each well at wavelengths 490 nm and 650 nm (background) was detected on an enzyme linked immuno analyzer, and the survival rate of cells was calculated.

HBsAg = assay: In vitro inhibition of HBV: HBsAg in HepG2.2.15 cells by ELISA; type: cell-based; settings: Hepatitis B virus, HepG2.2.15, read-out: IC50 (μM) (HBsAg)
Method: as §1, §2, §3, §4, §5, §6

Row | SMILES | CC50 at 72 h [1] [µM] | EC50 (VSVG/HIV-luc (NL4-3)) [µM] | IC50 (HBeAg) [µM] | CC50 at 44 h [2] [µM] | inhibition at 10 µM (VSVG/HIV-luc (NL4-3)) [%] | IC50 (HBsAg) [µM]
1 | CN(C)c1ccn([C@@H]2O[C@@](CO)(N=[N+]=[N-])C(O)C2F)c(=O)n1 (stereo partly shown) [Compound 5-21] | > 250 | 13 ± 6 | 15.5 | ≥ 25 |  | 
2 | COC(=O)[C@@H](Cc1cc2ccccc2[nH]1)Nc1ccn([C@@H]2O[C@@](CO)(N=[N+]=[N-])C(O)C2F)c(=O)n1 (stereo partly shown) [Compound 7c] | ≥ 280 | 0.5 | 0.32 | ≥ 25 | 38.8 ± 3.3 | 0.2
3 | [N-]=[N+]=N[C@]1(CO)O[C@@H](n2ccc(NCC(=O)O)nc2=O)C(F)C1O (stereo partly shown) [Compound 8a] | > 250 | 5.1 ± 1.1 | 16.7 | ≥ 25 |  | 13.8
4 | [N-]=[N+]=N[C@]1(CO)O[C@@H](n2ccc(NCCCO)nc2=O)C(F)C1O (stereo partly shown) [Compound 5-14] | 668 |  |  |  | 6.3 ± 3.2 | 2.46
5 | CNNc1ccn([C@@H]2O[C@@](CO)(N=[N+]=[N-])C(O)C2F)c(=O)n1 (stereo partly shown) [Compound 5-31] |  |  |  |  | 22.8 ± 3.5 | 
6 | Cc1cn([C@H]2C[C@H](N=[N+]=[N-])[C@@H](CO)O2)c(=O)[nH]c1=O [Zidovudine, reference compound] |  | 0.084 ± 0.0026 |  |  |  | 
7 | [N-]=[N+]=N[C@]1(CO)O[C@@H](n2ccc(NCCO)nc2=O)C(F)C1O (stereo partly shown) [Compound 5-13] |  |  |  |  | 41.7 ± 1.8 | 
8 | CON(C)c1ccn([C@@H]2O[C@@](CO)(N=[N+]=[N-])C(O)C2F)c(=O)n1 (stereo partly shown) [Compound 5-06] |  |  |  |  | 32.2 ± 10.5 | 
9 | COC(=O)[C@@H]1CCCN1c1ccn([C@@H]2O[C@@](CO)(N=[N+]=[N-])C(O)C2F)c(=O)n1 (stereo partly shown) [Compound 7L] | 596 |  |  |  | 5.1 ± 4.6 | 0.02
10 | [N-]=[N+]=N[C@]1(CO)O[C@@H](n2cc(C(=O)N3CCSCC3)c(=O)[nH]c2=O)C(F)C1O (stereo partly shown) [Compound 27] | 585 |  |  |  | 4.8 ± 1.8 | < 0.1
11 | CCN(CC)c1ccn([C@@H]2O[C@@](CO)(N=[N+]=[N-])C(O)C2F)c(=O)n1 (stereo partly shown) [Compound 5-04] |  |  |  |  | 8.6 ± 7.5 | 
12 | [N-]=[N+]=N[C@]1(CO)O[C@@H](n2ccc(NCc3ccco3)nc2=O)C(F)C1O (stereo partly shown) [Compound 5-09] | ≥ 25 | 0.7 ± 0.1 |  | ≥ 25 |  | 0.19
13 | CCNc1ccn([C@@H]2O[C@@](CO)(N=[N+]=[N-])C(O)C2F)c(=O)n1 (stereo partly shown) [Compound 5-01] |  |  |  |  | 21.6 ± 1.3 | 
14 | [N-]=[N+]=N[C@]1(CO)O[C@@H](n2cc(C#CCCO)c(N)nc2=O)C(F)C1O (stereo partly shown) [Compound 15] |  |  |  |  | 27 ± 4.7 | 
15 | [N-]=[N+]=N[C@]1(CO)O[C@@H](n2cc(-c3ccco3)c(=O)[nH]c2=O)C(F)C1O (stereo partly shown) [Compound 10] |  |  |  |  | 15.1 ± 0.8 | 
16 | CCCCCNc1ccn([C@@H]2O[C@@](CO)(N=[N+]=[N-])C(O)C2F)c(=O)n1 (stereo partly shown) [Compound 5-24] |  |  |  |  | 33.8 ± 1 | 
17 | [N-]=[N+]=N[C@]1(CO)O[C@@H](n2cc(-c3ccco3)c(N)nc2=O)C(F)C1O (stereo partly shown) [Compound 12] |  |  |  |  | 15.8 ± 4.4 | 
18 | [N-]=[N+]=N[C@]1(CO)O[C@@H](n2ccc(N3CCSCC3)nc2=O)C(F)C1O (stereo partly shown) [Compound 5-29] |  |  |  |  | 11.6 ± 0.5 | 
19 | [N-]=[N+]=N[C@]1(CO)O[C@@H](n2ccc(NNC(N)=O)nc2=O)C(F)C1O (stereo partly shown) [Compound 5-30] |  |  |  |  | 38.6 ± 5.7 | 
20 | COC(=O)[C@H](CCSC)Nc1ccn([C@@H]2O[C@@](CO)(N=[N+]=[N-])C(O)C2F)c(=O)n1 (stereo partly shown) [Compound 8g] | > 250 | 8.1 ± 5.5 |  | ≥ 25 |  | 19.6
21 | COC(=O)[C@H](Cc1ccccc1)Nc1ccn([C@@H]2O[C@@](CO)(N=[N+]=[N-])C(O)C2F)c(=O)n1 (stereo partly shown) [Compound 8n] | > 250 | 5.4 ± 3 | 4.41 | ≥ 25 |  | 
22 | COCCCNc1ccn([C@@H]2O[C@@](CO)(N=[N+]=[N-])C(O)C2F)c(=O)n1 (stereo partly shown) [Compound 5-23] |  |  |  |  | 10.4 ± 3.5 | 
23 | COC(=O)[C@H](CO)Nc1ccn([C@@H]2O[C@@](CO)(N=[N+]=[N-])C(O)C2F)c(=O)n1 (stereo partly shown) [Compound 8h] | > 250 | 6.2 ± 0.6 |  | ≥ 25 |  | 0.07

Row | SMILES | CC50 at 72 h [1] [µM] | EC50 (VSVG/HIV-luc (NL4-3)) [µM] | IC50 (HBeAg) [µM] | CC50 at 44 h [2] [µM] | inhibition at 10 µM (VSVG/HIV-luc (NL4-3)) [%] | IC50 (HBsAg) [µM]
24 | [N-]=[N+]=N[C@]1(CO)O[C@@H](n2ccc(N3CCCC3)nc2=O)C(F)C1O (stereo partly shown) [Compound 5-05] |  |  |  |  | 31.6 ± 3.6 | 
25 | [N-]=[N+]=N[C@]1(CO)O[C@@H](n2ccc(NCCc3ccc(O)cc3)nc2=O)C(F)C1O (stereo partly shown) [Compound 5-03] | 834 | 5.7 ± 0.2 |  | ≥ 25 |  | < 0.1
26 | [N-]=[N+]=N[C@]1(CO)O[C@@H](n2ccc(NCC(O)CN)nc2=O)C(F)C1O (stereo partly shown) [Compound 5-33] |  |  |  |  | 14.1 ± 2.2 | 
27 | [N-]=[N+]=N[C@]1(CO)O[C@@H](n2cc(C(=O)N3CCOCC3)c(=O)[nH]c2=O)C(F)C1O (stereo partly shown) [Compound 22] | 644 |  |  |  | 0 | 2.14
28 | CCCCCCNc1ccn([C@@H]2O[C@@](CO)(N=[N+]=[N-])C(O)C2F)c(=O)n1 (stereo partly shown) [Compound 5-25] |  |  |  |  | 35 ± 1.7 | 
29 | [N-]=[N+]=N[C@]1(CO)O[C@@H](n2cc(C#CCCO)c(=O)[nH]c2=O)C(F)C1O (stereo partly shown) [Compound 14] |  |  |  |  | 10 ± 5.9 | 
30 | [N-]=[N+]=N[C@]1(CO)O[C@@H](n2cc3cc(CCO)oc3nc2=O)C(F)C1O (stereo partly shown) [Compound 16] |  |  |  |  | 9.9 ± 0.8 | 
31 | CCCCCCCCNc1ccn([C@@H]2O[C@@](CO)(N=[N+]=[N-])C(O)C2F)c(=O)n1 (stereo partly shown) [Compound 5-27] |  |  |  |  | 32.3 ± 3.2 | 
32 | COC(=O)[C@H](Nc1ccn([C@@H]2O[C@@](CO)(N=[N+]=[N-])C(O)C2F)c(=O)n1)C(C)C (stereo partly shown) [Compound 8f] | > 250 | 4.7 ± 0.1 |  | ≥ 25 |  | 0.26
33 | [N-]=[N+]=N[C@]1(CO)O[C@@H](n2ccc(NC3CCCCC3)nc2=O)C(F)C1O (stereo partly shown) [Compound 5-10] | 654 |  |  |  | 1.9 ± 2.2 | < 0.1
34 | CONc1ccn([C@@H]2O[C@@](CO)(N=[N+]=[N-])C(O)C2F)c(=O)n1 (stereo partly shown) [Compound 5-07] | 418 |  | > 1 |  | 29.4 ± 5.1 | < 0.01
35 | CC(Nc1ccn([C@@H]2O[C@@](CO)(N=[N+]=[N-])C(O)C2F)c(=O)n1)C(=O)O (stereo partly shown) [Compound 8m] |  | 0.5 ± 0.3 |  | ≥ 25 |  | 
36 | [N-]=[N+]=N[C@]1(CO)O[C@@H](n2cc(C(=O)N3CCCC3)c(=O)[nH]c2=O)C(F)C1O (stereo partly shown) [Compound 25] |  |  |  |  | 16.8 ± 1.2 | 
37 | [N-]=[N+]=N[C@]1(CO)O[C@@H](n2ccc(NN3CCOCC3)nc2=O)C(F)C1O (stereo partly shown) [Compound 5-22] |  |  |  |  | 14.2 ± 5.1 | 
38 | CCCCCCCNc1ccn([C@@H]2O[C@@](CO)(N=[N+]=[N-])C(O)C2F)c(=O)n1 (stereo partly shown) [Compound 5-26] |  |  |  |  | 33.9 ± 0.5 | 
39 | [N-]=[N+]=N[C@]1(CO)O[C@@H](n2ccc(NCC(N)=O)nc2=O)C(F)C1O (stereo partly shown) [Compound 7j] | 239 | 10 ± 7 | 6.16 | ≥ 25 |  | 
40 | [N-]=[N+]=N[C@]1(CO)O[C@@H](n2ccc(NCCCN)nc2=O)C(F)C1O (stereo partly shown) [Compound 5-32] |  |  |  |  | 0.9 ± 0.8 | 
41 | [N-]=[N+]=N[C@]1(CO)O[C@@H](n2ccc(NCc3ccccc3)nc2=O)C(F)C1O (stereo partly shown) [Compound 5-16] |  |  |  |  | 31.3 ± 4 | 
42 | CCONc1ccn([C@@H]2O[C@@](CO)(N=[N+]=[N-])C(O)C2F)c(=O)n1 (stereo partly shown) [Compound 5-08] | 572 |  | > 1 |  | 15.6 ± 1.3 | 0.12
43 | [N-]=[N+]=N[C@]1(CO)O[C@@H](n2ccc(N3CCOCC3)nc2=O)C(F)C1O (stereo partly shown) [Compound 5-12] | 700 |  | > 1 |  | 3 ± 6.9 | < 0.1
44 | [N-]=[N+]=N[C@]1(CO)O[C@@H](n2ccc(NCCc3c[nH]c4ccccc34)nc2=O)C(F)C1O (stereo partly shown) [Compound 5-20] | > 250 | 5.8 ± 2.6 |  | ≥ 25 |  | 
45 | [N-]=[N+]=N[C@]1(CO)O[C@@H](n2ccc(NCC(O)CO)nc2=O)C(F)C1O (stereo partly shown) [Compound 5-18] |  |  |  |  | 17.8 ± 0.6 | 

— patent US9422321B2, “Pyrimidine nucleoside derivatives, synthesis methods and uses thereof for preparing anti-tumor and anti-virus medicaments” (High & New Technology Research Center, Henan Academy of …, priority 2010, dated 2016)
